Results from PubChem BioAssay AID240 (DTP/NCI, 2004).
Several values for one entry are separate records, joined by “and”; a condition that tells them apart may be missing. Equal values may be shown once. Toxic doses and inconclusive results are not listed.

System: Lymphoma 4 ip in BDF1 mice, median survival
Test: NCI In Vivo Anticancer Drug Screen. Data for tumor model Lymphoma 4 (intraperitoneal) in B6D2F1 (BDF1) mice
Conditions: endpoint: median survival time, higher = longer survival
Experimental: The antitumor activity of compounds was measured in mice bearing transplantable tumors. Survival or tumor size were measured and the results are expressed as the measurement made in the treated group (T) divided by the measurement made in the vehicle treated control group (C). The tumor model used in this assay is Lymphoma 4 (intraperitoneal) in B6D2F1 (BDF1) mice

[1] = dose: 8.0 mg/kg/injection, schedule: Q01DX010 (ip), vehicle: saline
[2] = dose: 16.0 mg/kg/injection, schedule: Q01DX010 (ip), vehicle: saline
[3] = dose: 32.0 mg/kg/injection, schedule: Q01DX010 (ip), vehicle: saline
[4] = dose: 12.5 mg/kg/injection, schedule: Q01DX010 (ip), vehicle: saline
[5] = dose: 25.0 mg/kg/injection, schedule: Q01DX010 (ip), vehicle: saline
[6] = dose: 2.0 mg/kg/injection, schedule: Q01DX010 (ip), vehicle: saline
[7] = dose: 50.0 mg/kg/injection, schedule: Q01DX010 (ip), vehicle: saline
[8] = dose: 62.5 mg/kg/injection, schedule: Q01DX010 (ip), vehicle: saline
[9] = dose: 125.0 mg/kg/injection, schedule: Q01DX010 (ip), vehicle: saline
[10] = dose: 250.0 mg/kg/injection, schedule: Q01DX010 (ip), vehicle: saline
[11] = dose: 100.0 mg/kg/injection, schedule: Q01DX010 (ip), vehicle: saline
[12] = dose: 200.0 mg/kg/injection, schedule: Q01DX010 (ip), vehicle: saline
[13] = dose: 10.0 mg/kg/injection, schedule: Q01DX010 (ip), vehicle: saline

## C[C@]12C=CC(=O)C=C1CC[C@@H]1[C@@H]2[C@@H](O)C[C@@]2(C)[C@H]1CC[C@]2(O)C(=O)CO
dose: 12.5 mg/kg/injection, schedule: Q01DX010 (sc), vehicle: steriod suspending solution
  T/C: 123 % of control
dose: 25.0 mg/kg/injection, schedule: Q01DX010 (sc), vehicle: steriod suspending solution
  T/C: 116 % of control
dose: 50.0 mg/kg/injection, schedule: Q01DX010 (sc), vehicle: steriod suspending solution
  T/C: 110 % of control
dose: 100.0 mg/kg/injection, schedule: Q01DX010 (sc), vehicle: steriod suspending solution
  T/C: 116 % of control

## CN1CC[C@]23c4c5ccc(O)c4O[C@H]2C(=O)CC[C@H]3[C@H]1C5
dose: 4.0 mg/kg/injection, schedule: Q01DX010 (ip), vehicle: saline
  T/C: 96 % of control
[1]
  T/C: 100 % of control and 103 % of control
[2]
  T/C: 96 % of control and 100 % of control
[3]
  T/C: 96 % of control and 100 % of control

## CCCNc1ncnc2[nH]ncc12
dose: 3.13 mg/kg/injection, schedule: Q01DX010 (ip), vehicle: saline
  T/C: 109 % of control and 111 % of control
dose: 6.25 mg/kg/injection, schedule: Q01DX010 (ip), vehicle: saline
  T/C: 103 % of control and 123 % of control
[4]
  T/C: 103 % of control and 117 % of control
[5]
  T/C: 91 % of control and 109 % of control

## O=C(Nc1ccc(NC2=NCCN2)cc1)c1ccc(C(=O)Nc2ccc(NC3=NCCN3)cc2)cc1
[6]
  T/C: 113 % of control and 121 % of control
[1]
  T/C: 207 % of control
[2]
  T/C: 96 % of control

## COc1cc(-c2ccc(Nc3ccccc3C(=O)O)c(OC)c2)ccc1Nc1ccccc1C(=O)O
[4]
  T/C: 107 % of control
[5]
  T/C: 115 % of control
[7]
  T/C: 123 % of control

## Nc1nc(=S)c2ncn(C3OC(CO)C(O)C3O)c2[nH]1 (configuration not stated)
dose: 0.25 mg/kg/injection, schedule: Q01DX010 (ip), vehicle: saline
  T/C: 100 % of control
dose: 0.5 mg/kg/injection, schedule: Q01DX010 (ip), vehicle: saline
  T/C: 106 % of control
dose: 1.0 mg/kg/injection, schedule: Q01DX010 (ip), vehicle: saline
  T/C: 102 % of control and 115 % of control
[6]
  T/C: 100 % of control

## CO[C@@H]1[C@@H](OC2OC(C)C(OC3CC(C)(O)C(OC(=O)CC(C)C)C(C)O3)C(N(C)C)C2O)[C@@H](CC=O)C[C@@H](C)C(=O)/C=C/C2O[C@H]2C[C@@H](C)OC(=O)C[C@H]1OC(C)=O (some centres not stated)
dose: 37.5 mg/kg/injection, schedule: Q01DX010 (ip), vehicle: saline
  T/C: 100 % of control and 107 % of control
dose: 75.0 mg/kg/injection, schedule: Q01DX010 (ip), vehicle: saline
  T/C: 100 % of control and 111 % of control
dose: 150.0 mg/kg/injection, schedule: Q01DX010 (ip), vehicle: saline
  T/C: 100 % of control and 118 % of control
dose: 300.0 mg/kg/injection, schedule: Q01DX010 (ip), vehicle: saline
  T/C: 100 % of control and 111 % of control

## O=CCC(O)C(O)C(O)CO (configuration not stated)
[8]
  T/C: 100 % of control
[9]
  T/C: 100 % of control and 103 % of control
[10]
  T/C: 103 % of control and 107 % of control
dose: 500.0 mg/kg/injection, schedule: Q01DX010 (ip), vehicle: saline
  T/C: 100 % of control and 110 % of control

## Nc1c(Br)cc2c(c1Br)Cc1cc([N+](=O)[O-])ccc1-2
dose: 15.6 mg/kg/injection, schedule: Q01DX010 (ip), vehicle: saline
  T/C: 100 % of control
dose: 31.3 mg/kg/injection, schedule: Q01DX010 (ip), vehicle: saline
  T/C: 107 % of control and 118 % of control
[8]
  T/C: 107 % of control and 111 % of control
[9]
  T/C: 111 % of control and 114 % of control
[10]
  T/C: 103 % of control

## CN(C)c1ccc(Nc2c3ccccc3nc3ccccc23)cc1
dose: 36.0 mg/kg/injection, schedule: Q01DX010 (ip), vehicle: saline
  T/C: 107 % of control
dose: 54.0 mg/kg/injection, schedule: Q01DX010 (ip), vehicle: saline
  T/C: 100 % of control and 115 % of control
dose: 80.0 mg/kg/injection, schedule: Q01DX010 (ip), vehicle: saline
  T/C: 121 % of control and 123 % of control

## C#CCN(C)Cc1ccccc1
[5]
  T/C: 93 % of control
[7]
  T/C: 93 % of control
[11]
  T/C: 96 % of control
[12]
  T/C: 96 % of control

## CCOC(=O)c1[nH]c2ccccc2c1CN(CCCl)CCCl
[13]
  T/C: 116 % of control

## CC[n+]1c(-c2ccccc2)c2cc(N)ccc2c2ccc(N)cc21
[13]
  T/C: 242 % of control

## Cc1cc(N(CCCl)CCCl)ccc1N=Nc1ccccc1C(=O)O
[13]
  T/C: 171 % of control
dose: 20.0 mg/kg/injection, schedule: Q01DX010 (ip), vehicle: saline
  T/C: 150 % of control and 166 % of control

## CS(=O)(=O)OCC(O)C(O)C(O)C(O)COS(C)(=O)=O (configuration not stated)
[7]
  T/C: 100 % of control
[11]
  T/C: 103 % of control
[12]
  T/C: 103 % of control
dose: 400.0 mg/kg/injection, schedule: Q01DX010 (ip), vehicle: saline
  T/C: 114 % of control

## O=C(Nc1ccc(C2=NCCN2)cc1)c1cccc(C(=O)Nc2ccc(C3=NCCN3)cc2)c1
[1]
  T/C: 113 % of control and 121 % of control
[2]
  T/C: 120 % of control
[3]
  T/C: 170 % of control and 189 % of control
dose: 64.0 mg/kg/injection, schedule: Q01DX010 (ip), vehicle: saline
  T/C: 235 % of control

## Nc1nc(N)c2nc(CNc3ccc(C(=O)NC(CCC(=O)O)C(=O)O)cc3)cnc2n1 (configuration not stated)
dose: 0.05 mg/kg/injection, schedule: Q01DX010 (ip), vehicle: other
  T/C: 96 % of control and 110 % of control
dose: 0.1 mg/kg/injection, schedule: Q01DX010 (ip), vehicle: other
  T/C: 110 % of control and 114 % of control
dose: 0.2 mg/kg/injection, schedule: Q01DX010 (ip), vehicle: other
  T/C: 116 % of control and 117 % of control
